Measurements published in patent US6103751A, “Carotene analogs of porphyrins, chlorins and bacteriochlorins as therapeutic and diagnostic agents” (Health Research, Inc., priority 1998, dated 2000).
One block for each compound: values may come before it.

Legend:
RIF tumor = assay: In vivo photosensitizing activity (tumor response after laser illumination); design: species or system C3H mice
Description: Preliminary In Vivo Activity:
RIF rumors were implanted subcutaneously into the axilla of 5-7 week old female C3H mice. When tumors grew to about 5 mm diameter, mice were injected with photosensitizers at various doses. The mice (6 mice/group) were restrained in aluminum holders and each tumor illuminated with 135 J/cm^2 light from a laser tuned at the longest wavelength absorption maximum of the photosensitizers. The percentage of short-term control was recorded daily.
*Six mice/group (RIF tumor). 1.0 μmol/kg, 705 nm, 135 J/cm^2 (24 h
*Six mice/group (RIF tumor). 135 J/cm^2

[1] = Fluorescence spectroscopy in dichloromethane; assay type: physicochemical
Description: Fluorescence Spectroscopy:
The fluorescence spectra of HPPH 2, purpurin-imide 4 and their corresponding carotene conjugates 3 and 6 were measured in dichloromethane. In the case of HPPH and its carotenoid analog, excitation at 660 nm gave strong emission at 670 nm. Similarly, purpurin imide and its carotenoid analog on excitation at 705 nm produced emission at 715 nm. Due to their strong fluorescence, and higher uptake in tumors, these compounds show great potential for use as diagnostic agents for malignant and non-malignant tumors.

[2] = Partition Coefficient (log P); assay type: physicochemical
[3] = Singlet oxygen production in oxygen saturated toluene, singlet oxygen phosphorescence at 1270 nm; assay type: physicochemical; details: for singlet oxygen production: phosphorescence at 1270 nm
Description: The carboxylic acid functionality was first activated by preparing carbodiimide analog (in situ) before condensing with amino carotene. The structure of the conjugate was confirmed by NMR and mass spectrometry. The singlet oxygen production by HPPH and its carotene conjugate was measured in oxygen saturated toluene solutions by monitoring the singlet oxygen phosphorescence at 1270 nm. […] Thus, a complete photoprotection was achieved.

[4] = test system: radiation induced fibrosarcoma (RIF) tumor; assay: Tumor uptake by in vivo reflection spectroscopy; design: species or system C3H mice; details: 5 micro mole/Kg; tumor vs skin fold; 3 h and 24 h post injection
Description: Determination of Tumor Uptake by In Vivo Reflection Spectroscopy:
The tumor uptake of the parent photosensitizer 2 (HPPH), FIG. 1, and purpurin with a fused imide ring 4, FIG. 2, were compared to the corresponding carotene conjugate 3 and 6 by in vivo reflection spectroscopy.
For these experiments, C3H mice with an axillary radiation induced fibrosarcoma (RIF) tumor were injected with the drug in an amount of 5 micro mole/Kg of body weight and the in vivo absorption specta were taken at various time intervals. FIGS. 3 and 4 respectively show the uptake of HPPH 2 and purpurin-imide 4 at 24 h post injection. FIGS. 5 and 6 show the uptake of the HPPH-carotene conjugate at 3 h and 24 h post injection.

SMILES: CCCCCCCOC(C)c1c(C)c2cc3nc(c4c5[nH]c(cc6nc(cc1[nH]2)C(C)=C6CC)c(C)c5C(=O)N(CCCCCC)C4=O)[C@@H](CCC(=O)OC)[C@@H]3C (stereo partly shown) [Purpurin-imide (4), heptyl ether analog of N-hexyl purpurin imide]
% TUMOR RESPONSE day 7 (RIF tumor; 1.0 μmol/kg, 705 nm, 24 between inj. & treatment, 135 J/cm^2, day 7, Table 2): 100%
% TUMOR RESPONSE day 21 (RIF tumor; 1.0 μmol/kg, 705 nm, 24 between inj. & treatment, 135 J/cm^2, day 21, Table 2): 100%
% TUMOR RESPONSE day 30 (RIF tumor; 1.0 μmol/kg, 705 nm, 24 between inj. & treatment, 135 J/cm^2, day 30, Table 2): 100%
% TUMOR RESPONSE day 90 (RIF tumor; 1.0 μmol/kg, 705 nm, 24 between inj. & treatment, 135 J/cm^2, day 90, Table 2): 83%
Tumor Response days 1-2 (RIF tumor; 1.0 μmol/kg, 705 nm, 135 J/cm^2, 24 h post injection, Table 1): 100%
mice tumor free on day 90 (RIF tumor; 1.0 μmol/kg, 705 nm, 135 J/cm^2, day 90): 5/6
in vivo activity among the compounds tested (RIF tumor; dose of 1.0 μmol/kg): most effective
fluorescence emission wavelength ([1]; excitation at 705 nm): 715 nm

SMILES: CCCN1C(=O)c2c3nc(cc4[nH]c(cc5nc(cc6[nH]c2c(c6C)C1=O)C(CC)=C5C)c(C(C)OC)c4C)[C@@H](C)[C@@H]3CCC(=O)OC (stereo partly shown) [Methyl Propyl]
logP [2]: 6.22

SMILES: CCCCCCOC(C)c1c(C)c2cc3nc(c4c5[nH]c(cc6nc(cc1[nH]2)C(C)=C6CC)c(C)c5C(=O)C4)[C@@H](CCC(=O)Nc1ccc(/C=C/C(C)=C/C=C/C(C)=C/C=C/C=C(C)/C=C/C=C(C)/C=C/C2=C(C)CCCC2(C)C)cc1)[C@@H]3C (stereo partly shown) [HPPH-carotene (3)]
singlet oxygen production ([3]; oxygen saturated toluene): did not produce singlet oxygen
tumor uptake compared to parent compound [4]: significant uptake of the drug in the tumor vs the skin fold
TUMOR RESPONSE (all days) (RIF tumor; 0.47 μmol/kg, 665 nm, 24 between inj. & treatment, 135 J/cm^2, Table 2): NO RESPONSE
fluorescence emission wavelength ([1]; excitation at 660 nm): 670 nm

SMILES: CCCOC(C)c1c(C)c2cc3nc(c4c5[nH]c(cc6nc(cc1[nH]2)C(C)=C6CC)c(C)c5C(=O)N(CCC)C4=O)[C@@H](CCC(=O)OC)[C@@H]3C (stereo partly shown) [Propyl Propyl]
logP [2]: 7.22

SMILES: CCCCCCOC(C)c1c(C)c2cc3nc(c4c5[nH]c(cc6nc(cc1[nH]2)C(C)=C6CC)c(C)c5C(=O)N(CCC)C4=O)[C@@H](CCC(=O)OC)[C@@H]3C (stereo partly shown) [Hexyl Propyl]
Tumor Response day 7 (RIF tumor; 0.5 μmol, 705 nm, 135 J/cm^2, 24 h post injection, day 7, Table 1): 66%
Tumor Response day 14 (RIF tumor; 0.5 μmol, 705 nm, 135 J/cm^2, 24 h post injection, day 14, Table 1): 33%
Tumor Response day 21 (RIF tumor; 0.5 μmol, 705 nm, 135 J/cm^2, 24 h post injection, day 21, Table 1): 17%
Tumor Response day 30 (RIF tumor; 0.5 μmol, 705 nm, 135 J/cm^2, 24 h post injection, day 30, Table 1): 17%
Tumor Response day 90 (RIF tumor; 0.5 μmol, 705 nm, 135 J/cm^2, 24 h post injection, day 90, Table 1): 17%
Tumor Response days 1-2 (RIF tumor; 0.5 μmol, 705 nm, 135 J/cm^2, 24 h post injection, Table 1): 100%
logP [2]: 8.72

SMILES: CCCCCCCOC(C)c1c(C)c2cc3nc(c4c5[nH]c(cc6nc(cc1[nH]2)C(C)=C6CC)c(C)c5C(=O)N(CCCCCC)C4=O)[C@@H](CCC(=O)Nc1ccc(/C=C/C(C)=C/C=C/C(C)=C/C=C/C=C(C)/C=C/C=C(C)/C=C/C2=C(C)CCCC2(C)C)cc1)[C@@H]3C (stereo partly shown) [Purpurin-imide-carotene (6)]
TUMOR RESPONSE (all days) (RIF tumor; 1.0 μmol/kg, 705 nm, 24 between inj. & treatment, 135 J/cm^2, Table 2): NO RESPONSE
fluorescence emission wavelength ([1]; excitation at 705 nm): 715 nm

SMILES: CCCCCCN1C(=O)c2c3nc(cc4[nH]c(cc5nc(cc6[nH]c2c(c6C)C1=O)C(CC)=C5C)c(C(C)OCCC)c4C)[C@@H](C)[C@@H]3CCC(=O)OC (stereo partly shown) [Propyl Hexyl]
logP [2]: 8.72

SMILES: CCCCCCN1C(=O)c2c3nc(cc4[nH]c(cc5nc(cc6[nH]c2c(c6C)C1=O)C(CC)=C5C)c(C(C)OC)c4C)[C@@H](C)[C@@H]3CCC(=O)OC (stereo partly shown) [Methyl Hexyl]
logP [2]: 7.72

fluorescence yield (Φf) [3]: 0.48
singlet oxygen yield (ΦΔ) ([3]; oxygen saturated toluene): 0.45
singlet oxygen production ([3]; oxygen saturated toluene): Ample production
fluorescence emission wavelength ([1]; excitation at 660 nm): 670 nm
SMILES: CCCCCCOC(C)c1c(C)c2cc3nc(c4c5[nH]c(cc6nc(cc1[nH]2)C(C)=C6CC)c(C)c5C(=O)C4)[C@@H](CCC(=O)O)[C@@H]3C (stereo partly shown) [HPPH (2), Hexyl ether analog of pyropheophorbide-a, reference compound]
% TUMOR RESPONSE day 1-2 (RIF tumor; 0.47 μmol/kg, 665 nm, 24 between inj. & treatment, 135 J/cm^2, day 1-2, Table 2): 100%
% TUMOR RESPONSE day 7 (RIF tumor; 0.47 μmol/kg, 665 nm, 24 between inj. & treatment, 135 J/cm^2, day 7, Table 2): 100%
% TUMOR RESPONSE day 30 (RIF tumor; 0.47 μmol/kg, 665 nm, 24 between inj. & treatment, 135 J/cm^2, day 30, Table 2): 50%
% TUMOR RESPONSE day 90 (RIF tumor; 0.47 μmol/kg, 665 nm, 24 between inj. & treatment, 135 J/cm^2, day 90, Table 2): 50%
% TUMOR RESPONSE day 21 (RIF tumor; 0.47 umol/kg, 504 h): 80%
